This note sets out measurements from publication PMC8855072, “Trypanosoma cruzi Mitochondrial Peroxiredoxin Promotes Infectivity in Macrophages and Attenuates Nifurtimox Toxicity” (Frontiers in Cellular and Infection Microbiology, 2022).

The target of experiment [1] is T1, recombinant MPX (rMPX), mitochondrial peroxiredoxin (Trypanosoma cruzi, UniProt O79469).
T1 construct: His-tagged, expressed in E. coli BL21, nickel column; pre-reduced with DTT, DTT removed
Put plainly: inhibition of peroxynitrite decomposition (CBA oxidation, fluorescence); SDS-PAGE of non-reducible adducts. The format is biochemical. The conditions noted are these: covalent; 100 µM CA, 1 h with pre-reduced MPX (5 µM), excess removed; SIN-1 as peroxynitrite source; holdase activity not inhibited.

Experiment [2] has as its target T1, recombinant MPX (rMPX), mitochondrial peroxiredoxin. Kind of experiment: competition with peroxynitrite-dependent CBA oxidation (fluorescence). The conditions noted are these: mere turnover; pre-reduced MPX 5 µM, peroxynitrite flux ~3 µM/min from SIN-1, CBA 50 µM. The format is biochemical.

Molecules are shown by their SMILES.

T1 sequence (O79469 entry or part of it): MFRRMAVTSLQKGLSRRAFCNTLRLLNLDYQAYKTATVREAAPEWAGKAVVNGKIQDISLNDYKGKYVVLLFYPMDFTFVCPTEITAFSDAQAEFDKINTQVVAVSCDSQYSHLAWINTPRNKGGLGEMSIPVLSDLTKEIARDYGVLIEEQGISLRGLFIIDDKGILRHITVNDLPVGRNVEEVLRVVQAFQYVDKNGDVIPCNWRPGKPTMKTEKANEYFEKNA

For the molecule `[O-][n+]1c(CBr)c(CBr)[n+]([O-])c2ccccc21` [conoidin A], in experiment [1], the “inhibition of peroxynitrite decomposition (CBA oxidation, fluorescence); SDS-PAG” value is “CA reacts and crosslinks recombinant MPX”.
Regarding `O=NOO` [peroxynitrite], the “competition with peroxynitrite-dependent CBA oxidation (fluorescence)” value in experiment [2] was “The decomposition of peroxynitrite by MPX reduces the oxidant generation of coumarin”.
